Data: publication PMC4049093 (ChemMedChem, 2012)
Entries after “also recorded” stand apart in the source; their conditions may differ. Where two headings read alike, the source gives them in different places.

How the values were obtained:
[1] = molecular target: human cannabinoid CB1 receptor (Homo sapiens, UniProt P21554); assay: biochemical; type: binding; settings: for CB1/CB2 selectivity ratio CB1 versus CB2: from Ki values at hCB1 and hCB2
[2] = molecular target: human cannabinoid CB2 receptor (Homo sapiens, UniProt P34972); assay: Competitive radioligand binding, displacement of [3H]-CP55,940 from hCB2
mouse cannabinoid tetrad = assay: Mouse cannabinoid tetrad; settings: mice, i.p.; WIN 2.5 and 5 mg/kg, 13a 5 and 10 mg/kg
mouse vas deferens = assay: Isolated tissue assay: electrically evoked contractions of mouse vas deferens; settings: 10^−7–1.8 × 10^−5 M, concentration-response curves

Chain of human cannabinoid CB1 receptor (P21554 whole entry): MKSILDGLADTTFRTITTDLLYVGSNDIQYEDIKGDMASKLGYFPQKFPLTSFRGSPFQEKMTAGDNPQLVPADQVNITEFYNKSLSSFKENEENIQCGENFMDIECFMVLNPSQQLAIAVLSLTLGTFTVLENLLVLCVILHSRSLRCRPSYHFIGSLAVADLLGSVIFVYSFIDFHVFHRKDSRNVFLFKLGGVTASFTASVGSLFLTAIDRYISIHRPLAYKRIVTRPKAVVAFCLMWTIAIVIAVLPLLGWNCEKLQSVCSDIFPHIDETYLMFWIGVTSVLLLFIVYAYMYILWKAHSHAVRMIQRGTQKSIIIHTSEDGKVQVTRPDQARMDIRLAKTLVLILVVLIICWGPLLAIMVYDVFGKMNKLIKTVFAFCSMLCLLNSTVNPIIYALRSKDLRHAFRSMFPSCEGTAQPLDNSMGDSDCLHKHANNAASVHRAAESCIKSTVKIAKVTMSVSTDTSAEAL
Chain of human cannabinoid CB2 receptor (P34972 whole entry): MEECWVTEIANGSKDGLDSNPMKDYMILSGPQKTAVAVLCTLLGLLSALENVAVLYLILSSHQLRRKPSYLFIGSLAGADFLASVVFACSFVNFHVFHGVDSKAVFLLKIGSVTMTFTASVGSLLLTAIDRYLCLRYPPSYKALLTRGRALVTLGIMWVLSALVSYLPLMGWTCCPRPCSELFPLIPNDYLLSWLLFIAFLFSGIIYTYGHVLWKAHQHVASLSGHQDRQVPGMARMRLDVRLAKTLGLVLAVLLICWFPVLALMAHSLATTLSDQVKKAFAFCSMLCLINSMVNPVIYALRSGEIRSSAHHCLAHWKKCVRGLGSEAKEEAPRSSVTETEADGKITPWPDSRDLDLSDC

Structure (SMILES) | Binding to CB1 receptor (in words) [1] | Ki [1] [µM] | CB1/CB2 selectivity ratio CB1 versus CB2 [1] | Binding to CB2 receptor (in words) [2] | Ki [2] [µM] | other results
CCCCCc1cc(O)c2c(c1)OC(C)(C)c1cnn(C)c1-2 [Compound 8a, 1,4-Dihydro-1,4,4-trimethyl-7-pentylchromeno[4,3-c]pyrazol-9-ol] | failed to bind to either CB1 or CB2 receptors | 4.7 ± 1.2 | 0.7 | failed to bind to either CB1 or CB2 receptors | 3.46 ± 1 | –
CCCCCc1cc(O)c2c(c1)OC(C)(C)c1cnn(CC)c1-2 [Compound 9a, 1-Ethyl-1,4-dihydro-4,4-dimethyl-7-pentylchromeno[4,3-c]pyrazol-9-ol] | failed to bind to either CB1 or CB2 receptors | 9.61 | – | failed to bind to either CB1 or CB2 receptors | > 40 | –
Cc1c(C(=O)c2cccc3ccccc23)c2cccc3c2n1[C@H](CN1CCOCC1)CO3 [WIN55,212-2, reference compound] | – | – | – | – | – | Antinociception in the hot-plate test (cannabinoid tetrad) (mouse cannabinoid tetrad): induced antinociceptive effect in the hot-plate test; Catalepsy on a ring (cannabinoid tetrad) (mouse cannabinoid tetrad): catalepsy; Locomotor activity on the rota-rod test (cannabinoid tetrad) (mouse cannabinoid tetrad): reduction of the locomotor activity; Rectal temperature / hypothermia (cannabinoid tetrad) (mouse cannabinoid tetrad): hypothermia
CCCCCc1cc(O)c2c(c1)OC(C)(C)c1cnn(-c3ccc(Cl)c(Cl)c3)c1-2 [Compound 10a, 1-(3,4-Dichlorophenyl)-1,4-dihydro-4,4-dimethyl-7-pentylchromeno[4,3-c]pyrazol-9-ol] | binds weakly to the CB1 cannabinoid receptor | 0.607 ± 0.151 | – | – | > 40 | –
CCCCCc1cc(O)c2c(c1)OC(C)(C)c1cn(CC)nc1-2 [Compound 9b, 2-Ethyl-2,4-dihydro-4,4-dimethyl-7-pentylchromeno[4,3-c]pyrazol-9-ol] | failed to bind to either CB1 or CB2 receptors | > 40 | – | failed to bind to either CB1 or CB2 receptors | 4.45 ± 1.01 | –
CCCCCCC(C)(C)c1cc(O)c2c(c1)OC(C)(C)c1cn[nH]c1-2 [Compound 11, 1,4-Dihydro-4,4-dimethyl-7-(1,1-dimethylheptyl)chromeno[4,3-c]pyrazol-9-ol] | – | – | >1000 | – | > 40 | –
CCCCCCC(C)(C)c1cc(O)c2c(c1)OC(C)(C)c1cnn(-c3ccc(Cl)c(Cl)c3)c1-2 [Compound 14a, 1-(3,4-Dichlorophenyl)-7-(1,1-dimethylheptyl)-1,4-dihydro-4,4-dimethylchromeno[4,3-c]pyrazol-9-ol] | reduced affinity for both receptors; also recorded: loss of affinity for CB1 | – | 0.5 | reduced affinity for both receptors; also recorded: moderate affinity for CB2 receptor | – | –
CCCCCc1cc(O)c2c(c1)OC(C)(C)c1cn[nH]c1-2 [Compound 7, 1,4-Dihydro-4,4-dimethyl-7-pentylchromen[4,3-c]pyrazol-9-ol] | failed to bind to either CB1 or CB2 receptors | – | 0.5 | failed to bind to either CB1 or CB2 receptors | – | Ki ([1]; read-out: hCB1 Ki, [3H]-CP55940 radioligand, membranes of transfected HEK293 EBNA cells, mean ± SEM of at least three experiments): 4.1 ± 0.8 µM; Ki ([2]; read-out: hCB2 Ki, [3H]-CP55940 radioligand, membranes of transfected HEK293 EBNA cells, mean ± SEM of at least three experiments): 2.01 ± 0.5 µM
CCCCCCC(C)(C)c1cc(O)c2c(c1)OC(C)(C)c1cnn(CC)c1-2 [Compound 13a, 7-(1,1-Dimethylheptyl)-1-ethyl-1,4-dihydro-4,4-dimethylchromeno[4,3-c]pyrazol-9-ol] | – | – | >1000 | – | > 40 | Effect on electrically evoked contractile response of mouse vas deferens (mouse vas deferens): highest effectiveness; also recorded: most effective cannabinoid agonist; Antinociception in the hot-plate test (cannabinoid tetrad) (mouse cannabinoid tetrad): did not modify any of the signs of cannabinoid tetrad; Catalepsy on a ring (cannabinoid tetrad) (mouse cannabinoid tetrad): did not modify any of the signs of cannabinoid tetrad; Locomotor activity on the rota-rod test (cannabinoid tetrad) (mouse cannabinoid tetrad): did not modify any of the signs of cannabinoid tetrad; Rectal temperature / hypothermia (cannabinoid tetrad) (mouse cannabinoid tetrad): did not modify any of the signs of cannabinoid tetrad
CCCCCCC(C)(C)c1cc(O)c2c(c1)OC(C)(C)c1cn(C)nc1-2 [Compound 12b, 7-(1,1-Dimethylheptyl)-2,4-dihydro-2,4,4-trimethylchromeno[4,3-c]pyrazol-9-ol] | – | – | >1000 | – | > 40 | –
CCCCCc1cc(O)c2c(c1)OC(C)(C)c1cn(C)nc1-2 [Compound 8b, 2,4-dihydro-2,4,4-trimethyl-7-pentylchromeno[4,3-c]pyrazol-9-ol] | failed to bind to either CB1 or CB2 receptors | 22.1 ± 1.41 | – | failed to bind to either CB1 or CB2 receptors | > 40 | –
CCCCCCC(C)(C)c1cc(O)c2c(c1)OC(C)(C)c1cn(CC)nc1-2 [Compound 13b, 7-(1,1-dimethylheptyl)-2-ethyl-2,4-dihydro-4,4-dimethylchromeno[4,3-c]pyrazol-9-ol] | – | – | >1000 | – | > 40 | –
CCCCCCC(C)(C)c1cc(O)c2c(c1)OC(C)(C)c1cnn(-c3ccc(Cl)cc3Cl)c1-2 [Compound 15a, 1-(2,4-Dichlorophenyl)-7-(1,1-dimethylheptyl)-1,4-dihydro-4,4-dimethylchromeno[4,3-c]pyrazol-9-ol] | – | – | >1000 | – | > 40 | –
